Data: patent US9464060B2, “Compounds” (TAKEDA PHARMACEUTICAL COMPANY LIMITED, priority 2013, dated 2016)

How the values were obtained:
human LPA1 receptors = human LPA1 receptors (Homo sapiens (Human), UniProt Q92633); experiment: In vitro LPA1 receptor assay (LPA-driven intracellular calcium release, FLIPR); type: cell-based; conditions: RH7777 cells expressing human LPA1 receptors; LPA at EC80
Description: In Vitro LPA1 Receptor Assay
(§1) Engagement of the LPA1 receptor by its ligand, oleoyl-L-α-lysophosphatidic acid (LPA), leads to the release of intracellular stores of calcium into the cytoplasm mediated through a Gq-driven increase in inositol triphosphate (IP3) levels. Gq is a heterotrimeric G protein subunit that activates phospholipase C.
The ability of test compounds to prevent LPA-driven intracellular release of stored calcium from RH7777 cells expressing human LPA1 receptors was assayed by stimulating the cells with LPA in the presence of various test compounds to measure the test compounds' antagonism, i.e. activity in vitro.
(§2) Approximately 10,000 cells in normal culture medium (Dulbecco's Modified Eagle Media, 10% Foetal Calf Serum) were dispensed per assay well in a black clear bottom collagen coated 384 well plate (Beckton Dickinson). Cells were allowed to settle for thirty minutes at room temperature before being incubated overnight at 37° C., 5% CO2. Sixteen to twenty hours after dispensing, the cells were loaded with a calcium-sensitive fluorescent dye by replacing the culture medium with assay buffer (1× Hanks buffered saline, 25 mM HEPES, 0.1% w/v fatty acid free BSA (bovine serum albumin), pH7.4) containing 1.25 mM probenecid and 1× Calcium 5 Reagent (Molecular Devices). Cells were incubated at 37° C. for one hour to allow for dye uptake.
(§3) To test for antagonist activity, test compounds at a final concentration range between 0.32 nM-10 μM (diluted in assay buffer) were added to the assay wells and allowed to incubate for twenty five minutes. […] Ligand-dependent changes in intracellular calcium levels were determined by measuring changes in fluorescence of the dye over […] following excitation over […].

LPA5 receptor = LPA5 receptor (Homo sapiens (Human), UniProt Q9H1C0); experiment: In vitro LPA5 receptor assay (LPA-driven intracellular calcium release, FLIPR); type: cell-based; conditions: RH7777 cells expressing human LPA5 receptors; LPA at EC90
Description: In Vitro LPA5 Receptor Assay
as §1, with “LPA5” for “LPA1”
The ability of test compounds to prevent LPA-driven intracellular release of stored calcium from RH7777 cells expressing human LPA5 receptors was assayed by stimulating the cells with LPA in the presence of various test compounds to measure the test compounds'antagonism, i.e. activity in vitro.
as §2, with “(Minimal Essential” for “(Dulbecco's Modified Eagle”, “poly-D-lysine” for “collagen”, “(Corning).” for “(Beckton Dickinson).”
as §3, with “fifteen” for “twenty five”

Sequence of LPA5 receptor (Q9H1C0 whole entry): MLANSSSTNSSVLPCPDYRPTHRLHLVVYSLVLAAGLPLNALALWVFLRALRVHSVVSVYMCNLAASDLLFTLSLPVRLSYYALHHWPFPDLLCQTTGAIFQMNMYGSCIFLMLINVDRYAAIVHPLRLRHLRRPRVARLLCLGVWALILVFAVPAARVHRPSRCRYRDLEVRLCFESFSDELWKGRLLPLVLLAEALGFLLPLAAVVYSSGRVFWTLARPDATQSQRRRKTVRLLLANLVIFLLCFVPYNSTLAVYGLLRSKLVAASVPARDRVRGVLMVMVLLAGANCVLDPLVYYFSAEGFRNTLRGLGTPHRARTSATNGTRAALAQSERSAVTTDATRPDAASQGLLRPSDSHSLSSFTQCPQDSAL
Sequence of human LPA1 receptors (Q92633 whole entry): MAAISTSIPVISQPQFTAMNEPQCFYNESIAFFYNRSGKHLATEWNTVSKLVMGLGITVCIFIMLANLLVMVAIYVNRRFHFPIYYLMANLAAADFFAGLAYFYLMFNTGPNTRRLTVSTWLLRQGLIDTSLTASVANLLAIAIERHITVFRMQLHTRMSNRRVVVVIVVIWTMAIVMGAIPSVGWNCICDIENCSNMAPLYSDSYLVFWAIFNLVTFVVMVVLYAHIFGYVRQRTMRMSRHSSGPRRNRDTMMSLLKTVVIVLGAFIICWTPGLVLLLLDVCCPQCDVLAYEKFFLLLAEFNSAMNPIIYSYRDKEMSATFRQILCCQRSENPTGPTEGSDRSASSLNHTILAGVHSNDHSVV

SMILES	IC50 (human LPA1 receptors)	IC50 (LPA5 receptor)
CCCN(Cc1ccc(C(=O)O)cc1)C(=O)c1ccc(Oc2ccc(F)cc2OC)cc1 [Example 80, 4-((4-(4-Fluoro-2-methoxyphenoxy)-N-propylbenzamido)methyl)benzoic acid]	110 nM	45 nM
COc1ccccc1Oc1ccc(C(=O)N(CCC(F)(F)F)Cc2ccc(C(=O)O)cc2)cc1 [Example 64, 4-((4-(2-Methoxyphenoxy)-N-(3,3,3-trifluoropropyl)-benzamido)methyl)benzoic acid]	9 nM	7 nM
CCCCN(Cc1ccc(C(=O)O)cc1)C(=O)c1ccc(Oc2ccccc2OC)cc1 [Example 65, 4-((N-Butyl-4-(2-methoxyphenoxy)benzamido)methyl)benzoic acid]	5 nM	4 nM
Cc1cccc(C)c1Oc1ccc(C(=O)N(CCC(C)C)Cc2ccc(C(=O)O)cc2)cc1 [Example 45, 4-((4-(2,6-Dimethylphenoxy)-N-isopentylbenzamido)methyl)benzoic acid]	75 nM	99 nM
COc1cccc(F)c1Oc1ccc(C(=O)N(Cc2ccc(C(=O)O)cc2)CC2CC2)cc1 [Example 67, 4-((N-(Cyclopropylmethyl)-4-(2-fluoro-6-methoxyphenoxy)benzamido)methyl)benzoic acid]	7 nM	5 nM
COc1ccccc1Oc1ccc(C(=O)N(Cc2ccc(C(=O)O)cc2)CC(C)C)cc1 [Example 30, 4-((N-Isobutyl-4-(2-methoxyphenoxy)benzamido)methyl)benzoic acid]	12 nM	12 nM
O=C(O)c1ccc(CN(CCCc2cccc(F)c2)C(=O)c2ccc(Oc3ccccc3F)cc2)cc1 [Example 17, 4-((4-(2-Fluorophenoxy)-N-(3-(3-fluorophenyl)propyl)benzamido)methyl)benzoic acid]	0.4 nM	1 nM
COc1ccccc1Oc1cnc(C(=O)N(Cc2ccc(C(=O)O)cc2)CC2CC2)nc1 [Example 84, 4-((N-(Cyclopropylmethyl)-5-(2-methoxyphenoxy)pyrimidine-2-carboxamido)methyl)benzoic acid]	170 nM	91 nM
O=C(O)c1ccc(CN(C[C@@H](O)Cc2ccccc2)C(=O)c2ccc(Oc3ccccc3F)cc2)cc1 [Example 19, (S)-4-((4-(2-Fluorophenoxy)-N-(2-hydroxy-3-phenylpropyl)benzamido)methyl)benzoic acid]	7 nM	9 nM
COc1ccccc1Oc1ccc(C(=O)N(CCCc2cccc(F)c2)Cc2ccc(C(=O)O)cc2)cc1 [Example 33, 4-((N-(3-(3-Fluorophenyl)propyl)-4-(2-methoxyphenoxy)-benzamido)methyl)benzoic acid]	0.3 nM	0.4 nM
O=C(O)c1ccc(CN(C[C@@H]2C[C@H]2c2ccccc2)C(=O)c2ccc(Oc3ccccc3F)cc2)cc1 (relative stereo) [Example 18, 4-((4-(2-Fluorophenoxy)-N-((trans-2-phenylcyclopropyl)methyl)-benzamido)methyl)benzoic acid]	1 nM	2 nM
Cc1cccc(C)c1Oc1ccc(C(=O)N(CCc2ccccc2)Cc2ccc(C(=O)O)cc2)cc1 [Example 47, 4-((4-(2,6-Dimethylphenoxy)-N-phenethylbenzamido)methyl)benzoic acid]	22 nM	11 nM
CC(F)(F)CN(Cc1ccc(C(=O)O)cc1)C(=O)c1ccc(Oc2ccccc2F)cc1 [Example 74, 4-((N-(2,2-Difluoropropyl)-4-(2-fluorophenoxy)benzamido)methyl)benzoic acid]	40 nM	98 nM
Cc1ccccc1Oc1ccc(C(=O)N(Cc2ccc(C(=O)O)cc2)CC2CC2)cc1 [Example 22, 4-((N-(Cyclopropylmethyl)-4-(o-tolyloxy)benzamido)methyl)benzoic acid]	30 nM	24 nM
COc1cccc(CN(Cc2ccc(C(=O)O)cc2)C(=O)c2ccc(Oc3ccccc3F)cc2)c1 [Example 13, 4-((4-(2-Fluorophenoxy)-N-(3-methoxybenzyl)benzamido)-methyl)benzoic acid]	4 nM	3 nM
COc1ccccc1Oc1ccc(C(=O)N(Cc2ccc(C(=O)O)cc2)CC2CC2)cc1 [Example 31, 4-((N-(Cyclopropylmethyl)-4-(2-methoxyphenoxy)benzamido)-methyl)benzoic acid]	4 nM	5 nM
O=C(O)c1ccc(CN(CCC2CC2)C(=O)c2ccc(Oc3c(F)cccc3F)cc2)cc1 [Example 38, 4-((N-(2-Cyclopropylethyl)-4-(2,6-difluorophenoxy)benzamido)-methyl)benzoic acid]	36 nM	140 nM
O=C(O)c1ccc(CN(CC(F)(F)F)C(=O)c2ccc(Oc3ccccc3Cl)cc2)cc1 [Example 72, 4-((4-(2-Chlorophenoxy)-N-(2,2,2-trifluoroethyl)benzamido)methyl)benzoic acid]	29 nM	42 nM
COc1ccccc1Oc1ccc(C(=O)N(Cc2ccc(C(=O)O)cc2)CC(F)(F)F)cc1 [Example 61, 4-((4-(2-Methoxyphenoxy)-N-(2,2,2-trifluoroethyl)benzamido)methyl)benzoic acid]	4 nM	8 nM
CCCN(Cc1ccc(C(=O)O)cc1)C(=O)c1ncc(Oc2ccccc2OC)cn1 [Example 85, 4-((5-(2-Methoxyphenoxy)-N-propylpyrimidine-2-carboxamido)methyl)benzoic acid]	180 nM	120 nM
CCN(Cc1ccc(C(=O)O)cc1)C(=O)c1ccc(Oc2ccccc2Cl)cc1 [Example 76, 4-((4-(2-Chlorophenoxy)-N-ethylbenzamido)methyl)benzoic acid]	130 nM	140 nM
Cc1ccccc1Oc1ccc(C(=O)N(CCc2ccccc2)Cc2ccc(C(=O)O)cc2)cc1 [Example 25, 4-((N-Phenethyl-4-(o-tolyloxy)benzamido)methyl)benzoic acid]	14 nM	29 nM
O=C(O)c1ccc(CN(CCc2ccccc2)C(=O)c2ccc(Oc3ccccc3Cl)cc2)cc1 [Example 36, 4-((4-(2-Chlorophenoxy)-N-phenethylbenzamido)methyl)benzoic acid]	24 nM	24 nM
COc1cc(F)ccc1Oc1ccc(C(=O)N(Cc2ccc(C(=O)O)cc2)CC2CC2)cc1 [Example 68, 4-((N-(Cyclopropylmethyl)-4-(4-fluoro-2-methoxyphenoxy)benzamido)methyl)benzoic acid]	13 nM	10 nM
O=C(O)c1ccc(CN(CC2CC2)C(=O)c2ncc(Oc3ccccc3F)cn2)cc1 [Example 83, 4-((N-(Cyclopropylmethyl)-5-(2-fluorophenoxy)pyrimidine-2-carboxamido)methyl)benzoic acid]	540 nM	350 nM
Cc1cccc(C)c1Oc1ccc(C(=O)N(Cc2ccccc2)Cc2ccc(C(=O)O)cc2)cc1 [Example 46, 4-((N-Benzyl-4-(2,6-dimethylphenoxy)benzamido)methyl)benzoic acid]	19 nM	17 nM
CCN(Cc1ccc(C(=O)O)cc1)C(=O)c1ccc(Oc2ccccc2C)cc1 [Example 73, 4-((N-Ethyl-4-(o-tolyloxy)benzamido)methyl)benzoic acid]	120 nM	890 nM
